{"source": "patent US12350273B2", "about": "“Treatment of SMA” (Hoffmann-La Roche Inc., priority 2017, dated 2025)", "test_system": "FOXM1B/C transcript variants", "test": "FOXM1B/C mRNA expression in Cynomolgus monkey iPSCs (RT-qPCR)", "format": "cell-based", "conditions": "24 h; for Mean FOXM1B/C relative mRNA expression (2-ΔΔCt vs control): Cynomolgus monkey iPSCs", "procedure": "FIG. 5A-FIG. 5B: Effect of RO7034067 on FOXM1 mRNA expression levels in human and Cynomolgus monkey iPSCs • Cells were treated with RO7034067 for 24 hours, and FOXM1 B/C transcript variants were analyzed by RT-PCR. Data represent means±SEM of 3 repetitions and are expressed as fold change vs. controls. IC50 values are indicated. FIG. 5A. human iPSCs. FIG. 5B. Cynomolgus monkey iPSCs\nHuman iPSCs (hIPS_Neo_Clone_1) were cultivated in mTeSR1 (Stem Cell Technologies) as standard medium and Cynomolgus monkey iPSCs (cips_54-1285_cFIB_Clone_8) in MT medium supplemented with 10 ng/ml ActivinA and 15 ng/ml FGF2.\nFor gene expression profiling, stem cells were detached with Accutase (Stem Cell Technologies) and plated in 12 well plates coated with Matrigel (BD Biosciences) in the respective standard medium supplemented with 10 μM Rock inhibitor Y-27632 (Sigma-Aldrich). In order to obtain enough RNA, monkey stem cells were seeded at 15000 cells/cm2 and human stem cells were seeded at 40000 cells/cm2 24 h prior to treatment. Thereafter stem cells were treated for 24 h with serial dilutions (1:5) of test items in fresh, pre-warmed medium in a concentration range from 0.64 nM till ˜10 μM. To stop the experiment, cells were lysed in QiaGen's lysis buffer RLT with beta-mercaptoethanol.\nHuman and Cynomolgus monkey mRNA expression was measured with customized primer and FAM fluorescently-labeled Universal Probe Library (UPL) probes from Roche or probes from Microsynth containing a 5′ FAM label and a 3′ terminal BlackHole Dark Quencher 1 (BHQ1). The sequences of the primer and FAM labeled probes are listed as follows:\nFor quantitative Real-Time-PCR, cells cultivated in a 12 well plate and treated with Roche-compounds for 24 h were lysed in 500 ul/well of QiaGen's lysis buffer RLT with beta-mercaptoethanol. Total RNA was extracted with the RNeasy Mini kit combined with DNase treatment on a solid support. RNA integrity was controlled by using Nanodrop absorption spectroscopy and microfluidic capillary array electrophoresis profiles from an Agilent Bioanalyzer\n2100. Between 300 ng to 800 ng of total RNA were reverse transcribed with oligo-dT primer and spiked MS2 RNA at 10 ng/uL final concentration using the Transcriptor First Strand cDNA Synthesis Kit (Roche Applied Science #04379012001) following the manufacturer's recommended protocol. The quantitative PCR was performed on a LightCycler 480 qPCR machine using 67.5 ng total RNA derived cDNA as input in a 20 μl mixture containing 1× LightCycler 480 Probes Master, 0.4 μM forward and reverse primers, and 0.2 μM FAM labeled hydrolysis probe. The temperature program consisted of pre-incubation at 95° C. for 10 min, followed by 50 cycles of amplification (95° C. for 10 s, 60° C. for 30 s, 72° C. for 5 s). Negative control reactions were conducted in the absence of cDNA template to confirm absence of cDNA contamination in the master mix. Measurements of Ct (cycle threshold)-values were performed for each sample-mRNA combination. Using the 2-ΔΔCt method (Livak K J et al. Method. Methods. 2001; 25(4):402-8), the data are presented as the fold change in gene expression normalized to an endogenous reference gene and relative to the untreated control. To derive individual ΔCt values, the Ct value for each target mRNA of each sample was normalized to the Ct value of the endogenous reference mRNA of GAPDH (glyceraldehyde-3-phosphate dehydrogenase). The […] was calculated by subtracting the ΔCt value of the vehicle-control group from the respective ΔCt value of each treatment group. Resultant expression ratios (2-ΔΔCt) mirrored treatment-related mRNA expression changes versus vehicle-controls. […] The model to derive the IC50 assumes that the dose response curves has a standard slope, equal to a Hill slope (or slope factor) of −1.0. Model equation: Y=Bottom+(Top-Bottom)/(1+10^((X-Log IC50))); with Y being the response data and X being log 10 concentrations in μM."}
{"smiles": "Cc1cn2nc(-c3cc(=O)n4cc(N5CCNC6(CC6)C5)ccc4n3)cc(C)c2n1", "note": "[RO7034067, 7-(4,7-diazaspiro[2.5]octan-7-yl)-2-(2,8-dimethylimidazo[1,2-b]pyridazin-6-yl)pyrido[1,2-a]pyrimidin-4-one]", "values": [{"measurement": "Mean FOXM1B/C relative mRNA expression (2-ΔΔCt vs control)", "setting": "0.64 nM", "result": 0.967}, {"measurement": "Mean FOXM1B/C relative mRNA expression (2-ΔΔCt vs control)", "setting": "3.2 nM", "result": 0.990}, {"measurement": "Mean FOXM1B/C relative mRNA expression (2-ΔΔCt vs control)", "setting": "16 nM", "result": 0.963}, {"measurement": "Mean FOXM1B/C relative mRNA expression (2-ΔΔCt vs control)", "setting": "80 nM", "result": 0.704}, {"measurement": "Mean FOXM1B/C relative mRNA expression (2-ΔΔCt vs control)", "setting": "400 nM", "result": 0.176}, {"measurement": "Mean FOXM1B/C relative mRNA expression (2-ΔΔCt vs control)", "setting": "2000 nM", "result": 0.023}, {"measurement": "Mean FOXM1B/C relative mRNA expression (2-ΔΔCt vs control)", "setting": "10000 nM", "result": 0.037}, {"measurement": "IC50", "setting": "Macaca fascicularis, iPSC, monkey iPSCs, read-out: IC50 on expression levels of FOXM1B/C", "result": 155, "unit": "nM"}]}
